Laboratory results taken from US10633407B2, “14-membered ketolides and methods of their preparation and use” (President and Fellows of Harvard College, priority 2014, dated 2020).
≈ marks a conversion by molar mass, not a printed value.

Columns and labels:
Experiment in all cases: CLSI broth dilution MIC determination
Type in all cases: cell-based
E. faecalis ATCC 29212 = conditions: Enterococcus faecalis, ATCC29212, E. faecalis ATCC 29212 (MP-24); read-out: MIC
[1] = tested on: P. aeruginosa HPA101-1477; conditions: Pseudomonas aeruginosa, HPA1011477, read-out: MIC
S. pyogenes ATCC 19615 = conditions: Streptococcus pyogenes, ATCC19615, S. pyogenes ATCC 19615 (MP-19); read-out: MIC
[2] = tested on: A. baumannii chromosomal class C; conditions: Acinetobacter baumannii, read-out: MIC
K. pneumoniae ATCC 10031 = conditions: Klebsiella pneumoniae, ATCC10031, K. pneumoniae ATCC 10031 (MP-14); read-out: MIC
A. baumannii ATCC 19606 = conditions: Acinetobacter baumannii, ATCC19606; A. baumannii ATCC 19606 (MP-15); read-out: MIC
[3] = tested on: A. baumannii imipenem-resistant; conditions: Acinetobacter baumannii, read-out: MIC
[4] = tested on: E. faecalis Vancomycin-resistant; conditions: Enterococcus faecalis, E. faecalis Vancomycin-resistant (UNT-039); read-out: MIC
[5] = tested on: H. influenzae Erythro >4, Azithro 1; conditions: Haemophilus influenzae; read-out: MIC
Text: MIC data was collected for the novel macrolides that this platform has produced against over 21 unique strains of B. subtilis, E. coli, S. aureus, S. pneumoniae, and H. influenzae, including several multidrug-resistant strains, with a special focus on macrolide resistant mechanisms (vide supra). […] CLSI standard procedures for broth dilution MIC determination were used. […] These genotypes can be constitutive or inducible.

K. pneumoniae SHV-12 = conditions: Klebsiella pneumoniae, SHV12, read-out: MIC
A. baumannii IMP-4 = conditions: Acinetobacter baumannii, IMP4, read-out: MIC
P. aeruginosa ATCC 27853 = conditions: Pseudomonas aeruginosa, ATCC27853; P. aeruginosa ATCC 27853 (MP-3); read-out: MIC
K. pneumoniae KPC-2 = conditions: Klebsiella pneumoniae, KPC2, read-out: MIC
S. aureus erm A genotype = conditions: Staphylococcus aureus; S. aureus erm A genotype (MP-620 UNT-146); read-out: MIC
Summary of the method: (§1)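 MICs were measured by broth dilution following CLSI standard procedures. Azithromycin and solithromycin served as control macrolides in many cases. Macrolide-resistance genotypes in the panel may be constitutive or inducible.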

S. aureus MRSA: USA100 = conditions: Staphylococcus aureus; S. aureus MRSA: USA100 (MP-618 UNT-096); read-out: MIC
Summary of the method: as §1

[6] = tested on: S. pneumoniae mef A genotype (second strain so labelled); conditions: Streptococcus pneumoniae, second strain (MP-627 UNT-039), read-out: MIC
Summary of the method: as §1

E. coli CTX-M-14 = conditions: Escherichia coli, CTXM14, read-out: MIC
Summary of the method: as §1

S. aureus ATCC 29213 = conditions: Staphylococcus aureus, ATCC29213; S. aureus ATCC 29213 (MP-12); read-out: MIC
Summary of the method: as §1

K. pneumoniae TEM-10 = conditions: Klebsiella pneumoniae, TEM10, read-out: MIC
S. pneumoniae ATCC 49619 = conditions: Streptococcus pneumoniae, ATCC49619, S. pneumoniae ATCC 49619 (MP-21); read-out: MIC
Summary of the method: as §1

H. influenzae ATCC49247 = conditions: Haemophilus influenzae, read-out: MIC
Summary of the method: as §1

[7] = tested on: S. pneumoniae erm B + mef A genotype; conditions: Streptococcus pneumoniae
Summary of the method: as §1

[8] = tested on: S. pneumoniae mef A genotype (first strain so labelled); conditions: Streptococcus pneumoniae, first strain (MP-626 UNT-038)
Summary of the method: as §1

E. coli NDM-1 = conditions: Escherichia coli, NDM1, read-out: MIC
Summary of the method: as §1

[9] = tested on: S. pneumoniae erm B + tet(M,O) genotype; conditions: Streptococcus pneumoniae
Summary of the method: as §1

E. coli ATCC 25922 = conditions: Escherichia coli, ATCC25922, E. coli ATCC 25922 (MP-4); read-out: MIC
Summary of the method: as §1

E. coli TEM-1 = conditions: Escherichia coli, TEM1
Summary of the method: as §1

S. aureus USA600, GISA = conditions: Staphylococcus aureus; S. aureus USA600, GISA (MP-619 UNT-120); read-out: MIC
Summary of the method: as §1

S. aureus MRSA: USA300 = conditions: Staphylococcus aureus; S. aureus MRSA: USA300 (MP-549, msr(a)); read-out: MIC
Summary of the method: as §1

[10] = tested on: S. pyogenes Macrolide-resistant; conditions: Streptococcus pyogenes, S. pyogenes Macrolide-resistant (MP-625 UNT-014); read-out: MIC

CC[C@H]1OC(=O)[C@@](C)(F)C(=O)[C@H](C)[C@@H](O[C@@H]2OC(C)CC(N(C)C)C2O)[C@](C)(OC)C[C@@H](C)C(=O)C[C@H]2N(CCCCn3cc(-c4cccc(N)c4)nn3)C(=O)O[C@]12C (stereo partly drawn) [FSM-21598]
MIC (E. faecalis ATCC 29212): ≤ 0.0312 µg/mL | MIC [1]: > 32 µg/mL | MIC (S. pyogenes ATCC 19615): ≤ 0.0312 µg/mL | MIC [2]: 32 µg/mL (≈ 38.5 µM) | MIC (K. pneumoniae ATCC 10031): 8 µg/mL (≈ 9.63 µM) | MIC (A. baumannii ATCC 19606): > 32 µg/mL | MIC [3]: > 32 µg/mL | MIC [4]: > 32 µg/mL | MIC [5]: 8 µg/mL (≈ 9.63 µM) | MIC (K. pneumoniae SHV-12): > 32 µg/mL | MIC (A. baumannii IMP-4): > 32 µg/mL | MIC (P. aeruginosa ATCC 27853): > 32 µg/mL | MIC (K. pneumoniae KPC-2): > 32 µg/mL | MIC (S. aureus erm A genotype): > 32 µg/mL | MIC (S. aureus MRSA: USA100): > 32 µg/mL | MIC [6]: 0.25 µg/mL (≈ 0.301 µM) | MIC (E. coli CTX-M-14): > 32 µg/mL | MIC (S. aureus ATCC 29213): 32 µg/mL (≈ 38.5 µM) | MIC (K. pneumoniae TEM-10): > 32 µg/mL | MIC (S. pneumoniae ATCC 49619): ≤ 0.0312 µg/mL | MIC (H. influenzae ATCC49247): 4 µg/mL (≈ 4.81 µM) | MIC [7]: 8 µg/mL (≈ 9.63 µM) | MIC [8]: ≤ 0.0312 µg/mL | MIC (E. coli NDM-1): > 32 µg/mL | MIC [9]: ≤ 0.0312 µg/mL | MIC (E. coli ATCC 25922): > 32 µg/mL | MIC (E. coli TEM-1): > 32 µg/mL | MIC (S. aureus USA600, GISA): > 32 µg/mL | MIC (S. aureus MRSA: USA300): 32 µg/mL (≈ 38.5 µM) | MIC [10]: 0.25 µg/mL (≈ 0.301 µM)
